These results are taken from patent publication US20240174648A1, “Small Molecule Compound” (Technoderma Medicines Pte Ltd, priority 2019, published 2024).

In assay [1] the target is JAK1 (Homo sapiens, UniProt P23458). Put plainly: JAK kinase inhibition assay (EZ Reader, peptide substrate phosphorylation) - JAK1. Format: biochemical. The following applies: JAK1 kinase 20 nM; 8 concentration points, max 10 μM. The text has this:
(§1) Assay for Identifying Inhibitory Effects of Compounds on JAK Kinases
(§2) Janus kinases (JAK), including JAK1, JAK2, JAK3 and Tyk2, transduce a cytokine-mediated signal through a JAK-STAT pathway. The kinases are 120-140 kDa in size and have 7 determined homology regions: JH1 to JH7. JH1 is an important region for enzymatic activity and has typical characteristics of tyrosine kinases. Phosphorylation of tyrosine leads to a change in the conformation of JAK protein, thereby promoting binding of substrate. The JAK-STAT system includes three main parts: receptors penetrating a cell membrane, Janus kinases binding to the receptors, and signal transducers and activators of transcription (STAT) for transmitting signals to a nucleus and DNA. When cytokines bind to receptors, JAK phosphorylates the receptors and attracts STAT proteins. The STAT proteins are also phosphorylated and combined with one another to form dimers. The dimers enter the nucleus and bind to DNA, thereby leading to gene transcription.
(§3) EZ Reader from PerkinElmer can be used to detect the phosphorylation of polypeptide substrates catalyzed by kinases. The device is based on microfluidic techniques, and can directly detect fluorescently labeled substrates and products. The separation step is achieved by controlling the pressure and electric field strength in the microfluidic chip. In kinase assays, a product conversion ratio is usually controlled to be 20-30%. A biological test is used to identify inhibitory effects of compounds on JAKs.
(§4) Compound powder was dissolved in DMSO, sealed and stored in a freezer under −20° C. The in-house compound Ref1 was used as a positive control for JAK1, JAK2 and Tyk2 tests, and Ref2 was used as a positive control for JAK3 tests.
(§5) S2.8. Assay buffer: 20 mM HEPES buffer, pH 7.4, 10 mM magnesium chloride, 0.01% bovine serum albumin BSA, 0.0005% Tween-20 and 1 mM dithiothreitol solution.
(§6) S2.9. Stop buffer: 180 mM HEPES buffer, 20 mM ethylenediaminetetraacetic acid and 0.2% coating reagent 3.
(§7) S2.10. Separation buffer: 100 mM HEPES buffer, 10 mM ethylenediaminetetraacetic acid, 0.0005% Tween 20, 0.1% coating reagent 3 and 1% dimethyl sulfoxide.
(§8) The compound was dissolved in dimethyl sulfoxide and diluted to 10 mM concentration, a certain volume of solution was taken and diluted to 0.6 mM concentration, 10 μL of the 0.6 mM dilution was added to a 384-well microplate, and then was diluted 3-fold with a total of 8 concentration points.
(§9) Positive control (HPE1): Ref1, final concentration: 10 μM […]
(§10) Negative control (ZPE): DMSO, final content: 1.6%
(§11) Compounds: maximum final concentration: 10 μM; 3-fold dilution, 8 concentration points and 2 duplicates.
(§12) S4.1. 250 nL of the compound was added to each well of the assay microplate by using ECHO, and centrifuged at 1000 rpm for 1 minute.
(§13) S4.2. 5 μL of the assay buffer was added and agitated for a few seconds to fully dissolve the compound.
(§14) S4.3. 5 μL of 3× substrate solution and 5 μL of 3× kinase solution were added and centrifuged at 800 rpm for 1 minute.
(§15) S4.4. Final concentrations of JAK1, JAK2, JAK3 and Tyk2 kinases in the reaction system were 20 nM, 1 nM, 1 nM and 1 nM respectively.
(§16) S4.5. Incubation at room temperature, where kinases had time differences, and different batches of kinases had time differences.
(§17) S4.6. When 20%-30% of the reaction completed, 15 μL of stop buffer was added to stop the reaction, and centrifuged at 1000 rpm for 2 minutes.
(§18) S4.7. The microplates were placed on EZ Reader for reading.
(§19) S4.8. Readings on EZ Reader were calculated by using a peak height, where product conversion ratio (%)=product/(product+substrate)*100.
(§20) 5. Data Processing: IC50 calculation
(§21) A graphing software Xlfit was used to form a concentration curve of the test compound, and an IC50 value was calculated.
(§22) “A” means “≥10 μM”; “B” means “≥1 μM and <10 μM”; “C” means “≥0.1 μM and <1 μM”; and “D” means “<0.1 μM”.

Assay [2] concerns the target Tyk2 (Homo sapiens, UniProt P29597). Put plainly: JAK kinase inhibition assay (EZ Reader, peptide substrate phosphorylation) - Tyk2. It is filed as biochemical. The following applies: Tyk2 kinase 1 nM; 8 concentration points, max 10 μM.
Text: as §1, §2, §3, §4, §5, §6, §7, §8, §9, §10, §11, §12, §13, §14, §15, §16, §17, §18, §19, §20, §21, §22

Each structure is given as a SMILES string.

JAK1, sequence (P23458 whole entry): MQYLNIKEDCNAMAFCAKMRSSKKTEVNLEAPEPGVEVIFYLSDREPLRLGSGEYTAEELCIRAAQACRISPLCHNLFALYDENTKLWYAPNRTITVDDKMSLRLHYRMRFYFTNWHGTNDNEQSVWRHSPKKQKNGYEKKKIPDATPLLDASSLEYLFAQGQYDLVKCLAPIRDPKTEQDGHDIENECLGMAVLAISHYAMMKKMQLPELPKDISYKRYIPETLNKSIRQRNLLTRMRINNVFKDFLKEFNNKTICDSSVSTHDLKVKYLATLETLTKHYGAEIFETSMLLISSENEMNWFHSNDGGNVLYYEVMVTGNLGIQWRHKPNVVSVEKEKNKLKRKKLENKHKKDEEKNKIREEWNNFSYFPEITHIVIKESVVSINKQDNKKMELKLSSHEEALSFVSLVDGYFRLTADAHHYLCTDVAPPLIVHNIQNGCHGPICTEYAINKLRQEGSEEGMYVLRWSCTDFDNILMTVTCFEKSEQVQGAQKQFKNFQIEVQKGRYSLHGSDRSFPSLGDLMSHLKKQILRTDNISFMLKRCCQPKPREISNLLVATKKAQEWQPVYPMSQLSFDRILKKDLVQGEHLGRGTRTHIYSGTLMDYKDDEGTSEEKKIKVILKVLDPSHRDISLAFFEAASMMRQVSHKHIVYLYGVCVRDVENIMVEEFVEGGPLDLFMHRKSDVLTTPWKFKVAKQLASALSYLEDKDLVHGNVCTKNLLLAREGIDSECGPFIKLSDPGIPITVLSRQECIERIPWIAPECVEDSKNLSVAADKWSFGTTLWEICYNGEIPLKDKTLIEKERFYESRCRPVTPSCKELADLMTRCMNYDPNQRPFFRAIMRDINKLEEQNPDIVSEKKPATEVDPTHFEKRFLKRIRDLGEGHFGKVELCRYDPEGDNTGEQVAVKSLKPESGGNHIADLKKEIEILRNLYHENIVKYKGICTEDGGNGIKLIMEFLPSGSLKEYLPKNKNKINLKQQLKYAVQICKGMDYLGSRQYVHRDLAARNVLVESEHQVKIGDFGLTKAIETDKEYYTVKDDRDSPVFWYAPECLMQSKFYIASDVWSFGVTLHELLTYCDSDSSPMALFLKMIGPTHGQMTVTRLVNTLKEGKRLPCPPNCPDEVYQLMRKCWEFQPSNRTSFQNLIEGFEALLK
Tyk2, sequence (P29597 whole entry): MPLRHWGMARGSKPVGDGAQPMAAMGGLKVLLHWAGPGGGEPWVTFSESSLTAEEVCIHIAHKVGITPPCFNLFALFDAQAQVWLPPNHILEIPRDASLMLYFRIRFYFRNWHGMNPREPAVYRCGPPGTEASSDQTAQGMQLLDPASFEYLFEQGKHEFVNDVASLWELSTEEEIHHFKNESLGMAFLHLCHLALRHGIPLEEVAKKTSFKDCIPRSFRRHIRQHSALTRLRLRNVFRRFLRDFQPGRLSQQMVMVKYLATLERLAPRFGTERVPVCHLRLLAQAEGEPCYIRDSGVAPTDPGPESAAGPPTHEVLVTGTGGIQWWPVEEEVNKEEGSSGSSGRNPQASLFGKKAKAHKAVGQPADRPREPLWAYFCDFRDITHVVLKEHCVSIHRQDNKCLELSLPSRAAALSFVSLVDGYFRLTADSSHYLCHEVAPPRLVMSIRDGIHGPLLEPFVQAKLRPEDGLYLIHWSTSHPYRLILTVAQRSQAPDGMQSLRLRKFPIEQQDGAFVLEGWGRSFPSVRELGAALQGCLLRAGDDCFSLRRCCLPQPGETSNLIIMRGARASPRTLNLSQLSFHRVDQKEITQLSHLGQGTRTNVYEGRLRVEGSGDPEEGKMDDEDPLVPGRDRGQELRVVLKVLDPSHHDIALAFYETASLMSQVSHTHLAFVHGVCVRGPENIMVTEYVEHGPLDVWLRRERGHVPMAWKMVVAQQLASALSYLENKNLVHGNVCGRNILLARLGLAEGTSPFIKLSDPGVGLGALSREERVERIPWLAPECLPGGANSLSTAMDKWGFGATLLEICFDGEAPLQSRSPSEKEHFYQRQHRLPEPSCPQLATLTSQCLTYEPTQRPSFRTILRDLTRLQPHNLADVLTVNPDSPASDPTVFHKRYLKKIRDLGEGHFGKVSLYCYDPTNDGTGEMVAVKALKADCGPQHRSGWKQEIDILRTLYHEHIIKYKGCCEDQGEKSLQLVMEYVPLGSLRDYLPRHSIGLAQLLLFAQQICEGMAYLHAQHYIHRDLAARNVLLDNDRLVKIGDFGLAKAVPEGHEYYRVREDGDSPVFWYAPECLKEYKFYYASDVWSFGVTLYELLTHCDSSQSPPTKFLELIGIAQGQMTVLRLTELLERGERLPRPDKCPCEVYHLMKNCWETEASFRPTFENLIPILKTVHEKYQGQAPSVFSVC

The IC50 is the midpoint of a concentration-inhibition curve. Read a high IC50 as lower potency. For `Cn1cc(Nc2nccc(-c3ccc(NC(=O)CC(F)(F)F)c4[nH]ccc34)n2)cn1` [TDM-180870, 3,3,3-trifluoro-N-(4-(2-((1-methyl-1H-pyrazol-4-yl)amino)pyrimidin-4-yl)-1H-indol-7-yl)propanamide], the IC50 is < 0.1 µM in assay [1] and 0.1 to 1 µM in assay [2].
In the same order, the values of `Cn1cc(Nc2nccc(-c3ccc(NS(=O)(=O)C4CCOCC4)nc3)n2)cn1` [TDM-180875, N-(5-(2-((1-methyl-1H-pyrazol-4-yl)amino)pyrimidin-4-yl)pyridin-2-yl)tetrahydro-2H-pyran-4-sulfonamide] are 0.1 to 1 µM and 1 to 10 µM.
`Cn1cc(Nc2nccc(-n3ccc4c(NC(=O)C5CC5)cccc43)n2)cn1` [TDM-180876, N-(1-(2-((1-methyl-1H-pyrazol-4-yl)amino)pyrimidin-4-yl)-1H-indole-4-yl)cyclopropanemethane]: the IC50 in assay [1] is < 0.1 µM; in assay [2], 0.1 to 1 µM.
On the same counts, the results for `CCOCCS(=O)(=O)Nc1ccc(-c2ccnc(Nc3cnn(C)c3)n2)cn1` [TDM-180877, 2-ethyoxyl-N-(5-(2-((1-methyl-1H-pyrazol-4-yl)amino)pyrimidin-4-yl)pyridin-2-yl)ethanesulfonamide] are 0.1 to 1 µM and 1 to 10 µM.
`Cn1cc(Nc2nccc(-n3ccc4c(NC(=O)CC#N)cccc43)n2)cn1` [TDM-180881, 2-cyano-N-(1-(2-((1-methyl-1H-pyrazol-4-yl)amino)pyrimidin-4-yl)-1H-indol-4-yl)acetamide]: the values for the IC50 in assay [1] and in assay [2] were < 0.1 µM and 0.1 to 1 µM, respectively.
Regarding `Cn1cc(Nc2nccc(-n3ccc4c(NC(=O)CC(F)(F)F)cccc43)n2)cn1` [TDM-180882, 3,3,3-trifluoro-N-(1-(2-((1-methyl-1H-pyrazol-4-yl)amino)pyrimidin-4-yl)-1H-indol-4-yl)propanamide], the figures for the IC50 in assay [1] and in assay [2] were < 0.1 µM and 0.1 to 1 µM, respectively.
In the same order, the values of `Cn1cc(Nc2nccc(-c3ccc(NC(=O)C4CC4)c4[nH]ncc34)n2)cn1` [TDM-180884, N-(4-(2-((1-methyl-1H-pyrazol-4-yl)amino)pyrimidin-4-yl)-1H-indazol-7-yl)cyclopropanemethane] are 0.1 to 1 µM and 0.1 to 1 µM.
On the same counts, the results for `Cn1cc(Nc2nccc(-n3ccc4c(NC(=O)C5CC5(F)F)cccc43)n2)cn1` (stereo not shown) [TDM-180885, 2,2-difluoro-N-(1-(2-((1-methyl-1H-pyrazol-4-yl)amino)pyrimidin-4-yl)-1H-indol-4-yl)cyclopropane-1-carboxamide] are < 0.1 µM and 0.1 to 1 µM.
On the same counts, the results for `Cn1cc(Nc2nccc(-c3cnc(NC(=O)C4CC4(F)F)nc3)n2)cn1` (stereo not shown) [TDM-180886, 2,2-difluoro-N-(2-((1-methyl-1H-pyrazol-4-yl)amino)-[4,5′-bipyrimidin]-2′-yl)cyclopropane-1-carboxamide] are < 0.1 µM and 0.1 to 1 µM.
As to `Cn1cc(Nc2nccc(-c3cnc(NC(=O)CC(F)(F)F)nc3)n2)cn1` [TDM-180887, 3,3,3-trifluoro-N-(2-((1-methyl-1H-pyrazol-4-yl)amino)-[4,5′-bipyrimidin]-2′-yl)propanamide], the IC50 fell in the range of 0.1 to 1 µM in assay [1] and 1 to 10 µM in assay [2].
On to `Cn1cc(Nc2nccc(-c3cnc(NC(=O)C4CC4(F)F)c(F)c3)n2)cn1` (stereo not shown) [TDM-180888, 2,2-difluoro-N-(3-fluoro-5-(2-((1-methyl-1H-pyrazol-4-yl)amino)pyrimidin-4-yl)pyridin-2-yl)cyclopropanecarboxamide], for which the IC50 in assay [1] and in assay [2] was 0.1 to 1 µM each time.
Regarding `Cn1cc(Nc2nccc(-c3cnc(NC(=O)CC(F)(F)F)c(F)c3)n2)cn1` [TDM-180889, 3,3,3-trifluoro-N-(3-fluoro-S-(2-((1-methyl-1H-pyrazol-4-yl)amino)pyrimidin-4-yl)pyridin-2-yl)propanamide], the IC50 in assay [1] fell in the range of 0.1 to 1 µM; in assay [2], 1 to 10 µM.
On the same counts, the results for `Cn1cc(Nc2nccc(-c3cnc(NC(=O)CC#N)c(F)c3)n2)cn1` [TDM-180890, 2-cyano-N-(3-fluoro-5-(2-((1-methyl-1H-pyrazol-4-yl)amino)pyrimidin-4-yl)pyridin-2-yl)acetamide] are 0.1 to 1 µM and 1 to 10 µM.
In the case of `Cn1cc(Nc2nccc(-c3cnc(NC(=O)C4CC4)c(F)c3)n2)cn1` [TDM-180891, N-(3-fluoro-5-(2-((1-methyl-1H-pyrazol-4-yl)amino)pyrimidin-4-yl)pyridin-2-yl)cyclopropanecarboxamide], the IC50 in assay [1] and in assay [2] was 1 to 10 µM throughout.
Regarding `Cn1cc(Nc2nccc(-c3cnc(NC(=O)C4CC4(F)F)cn3)n2)cn1` (stereo not shown) [TDM-180892, 2,2-difluoro-N-(5-(2-((1-methyl-1H-pyrazol-4-yl)amino)pyrimidin-4-yl)pyrazin-2-yl)cyclopropane-1-formamide], the values for the IC50 in assay [1] and in assay [2] were 0.1 to 1 µM and 1 to 10 µM, respectively.
On the same counts, the results for `CCCS(=O)(=O)Nc1ccc(-c2ccnc(Nc3cnn(C)c3)n2)cc1` [TDM-180893, N-(4-(2-((1-methyl-1H-pyrazol-4-yl)amino)pyrimidin-4-yl)phenyl)propane-1-sulfonamide] are 0.1 to 1 µM and 0.1 to 1 µM.
In the same order, the values of `Cn1cc(Nc2nccc(-c3ccc(NS(=O)(=O)CCc4ccccc4)cc3)n2)cn1` [TDM-180894, N-(4-(2-((1-methyl-1H-pyrazol-4-yl)amino)pyrimidin-4-yl)phenyl)-2-phenylethane-1-sulfonamide] are 0.1 to 1 µM and 0.1 to 1 µM.
As to `Cn1cc(Nc2nccc(-c3ccc(NS(=O)(=O)CCC(F)(F)F)nc3)n2)cn1` [TDM-180895, 3,3,3-trifluoro-N-(5-(2-((1-methyl-1H-pyrazol-4-yl)amino)pyrimidin-4-yl)pyridin-2-yl)propane-1-sulfonamide], the IC50 was 1 to 10 µM in assay [1] and ≥ 10 µM in assay [2].
On the same counts, the results for `Cn1cc(Nc2nccc(-c3ccc(NS(=O)(=O)CCCF)cc3)n2)cn1` [TDM-180896, 3-fluoro-N-(4-(2-((1-methyl-1H-pyrazol-4-yl)amino)pyrimidin-4-yl)phenyl)propane-1-sulfonamide] are 0.1 to 1 µM and 0.1 to 1 µM.
With `Cn1cc(Nc2nccc(-c3ccc(NS(=O)(=O)Cc4ccccc4)nc3)n2)cn1` [TDM-180897, N-(5-(2-((1-methyl-1H-pyrazol-4-yl)amino)pyrimidin-4-yl)pyridin-2-yl)-1-phenylmethanesulfonamide], the IC50 in assay [1] and in assay [2] was 0.1 to 1 µM in each case.
Turning to `Cn1cc(Nc2nccc(-c3ccc(NC(=O)CC#N)c4[nH]ncc34)n2)cn1` [TDM-180898, 2-cyano-N-(4-(2-((1-methyl-1H-pyrazol-4-yl)amino)pyrimidin-4-yl)-1H-indazole-7-yl)acetamide], the IC50 in assay [1] and in assay [2] was 0.1 to 1 µM in each case.
For the molecule `Cn1cc(Nc2nccc(-c3ccc(NC(=O)C4CC4(F)F)c4[nH]ncc34)n2)cn1` (stereo not shown) [TDM-180899, 2,2-difluoro-N-(4-(2-((1-methyl-1H-pyrazol-4-yl)amino)pyrimidin-4-yl)-1H-indazol-7-yl)cyclopropane-1-carboxamide], the results for the IC50 in assay [1] and in assay [2] were < 0.1 µM and 0.1 to 1 µM, respectively.
In the same order, the values of `Cn1cc(Nc2nccc(-c3ccc(NC(=O)CC(F)(F)F)c4[nH]ncc34)n2)cn1` [TDM-180900, 3,3,3-trifluoro-N-(4-(2-((1-methyl-1H-pyrazol-4-yl)amino)pyrimidin-4-yl)-1H-indazol-7-yl)propionamide] are < 0.1 µM and 0.1 to 1 µM.
